Measured values as given in patent US11911408B2, “Synergistic formulations of adenosine receptor modulating agents and anticholinergics” (UNIVERSITY OF ALASKA FAIRBANKS, priority 2021, dated 2024).
“Also recorded” adds a separate entry of the source.

Tests used:
[1] = test system: Sprague-Dawley rats; assay: Minimizing hemodynamic effects: antagonist pretreatments before IP CHA/CPA, rats on 4° C. cooled surface
Description: Fifteen different treatment combinations were administered to five male Sprague-Dawley rats with an average age of 314±88 days and weight of 453±44 g (mean±SD) in a modified cross over design as shown in Table 1). […] A washout period of at least one week was allowed between treatments. One hour of baseline data (body temperature, blood pressure, heart rate, and metabolism) was acquired before treatment. Rats received either a single IP injection of CHA or were pre-treated with antagonists 15 or 30 minutes prior to CHA drugs and were then placed on a 4° C. cooled surface (previously described Laughlin et al; herein incorporated by reference). Surface temperature was manually adjusted to prevent body temperature from falling below 32° C.
The pressure transducer was cannulated into the descending abdominal aorta.
Rats were placed inside a 12″×12″ clear acrylic box without bedding sitting on top of a custom built, aluminum hydronic surface. The aluminum surface was part of a cooling and heating system controlled by a thermostat in which circulating water was heated or cooled via thermoelectric Peltier plates and pumped through the aluminum cage floor. […] Food and water was provided ad libitum. The vascular access button was attached to a tether and swivel (Instech, VAHD115T, 375/D/22, Plymouth Meeting, Pa.) connected to a counter balance arm to provide freedom of movement.

[2] = test system: Sprague-Dawley rats; assay: 8-SPT dose determination (IV): atropine and 8-SPT bolus before CHA loading dose and infusion, 4° C. cooled surface; format: in vivo, rat; details: Atropine 1 mg/kg and SPT 10, 15 or 25 mg/kg (all doses) 15 min before CHA 1 mg/kg bolus, 0.25 mg/(kg·h) IV; n=5
Description: To define the dose-response relationship between 8-SPT combined with a constant concentration of atropine and CHA, three drug treatment combinations with varying doses of 8-SPT were tested. […] One hour of baseline data (body temperature, blood pressure, heart rate, and metabolism) were acquired before treatment. Rats received IV bolus of Atropine and 8-SPT 15 minutes before CHA. An IV loading dose of CHA was administered followed by a two hour continuous infusion of CHA. Rats were placed on a 4° C. cooled surface (previously described Laughlin et al). Surface temperature was manually adjusted to prevent body temperature from falling below 32° C.
Rats were placed inside a 12″×12″ clear acrylic box without bedding sitting on top of a custom built, aluminum hydronic surface. The aluminum surface was part of a cooling and heating system controlled by a thermostat in which circulating water was heated or cooled via thermoelectric Peltier plates and pumped through the aluminum cage floor. […] Food and water was provided ad libitum.

[3] = 8-SPT 25 mg/kg 15 min before CHA (S15C), n=4-5
[4] = 8-SPT 25 mg/kg administered 30 min after CHA 1 mg/kg, n=4-5

SMILES: Cn1c(=O)c2[nH]c(-c3ccc(S(=O)(=O)O)cc3)nc2n(C)c1=O [8-SPT, 8-(p-sulfophenyl) theophylline]
- effect on heart rate compared to CHA 1 mg/kg alone [1, 3]: minimal effect
- effect on mean arterial pressure compared to CHA 1 mg/kg alone [1, 3]: minimal effect
- core body temperature [1, 4]: increased significantly
- heart rate [1, 4]: increased significantly
- mean arterial pressure [1, 4]: increased significantly
- oxygen consumption [1, 4]: increased significantly
- prevention of CHA induced hypotension ([1]; 8-SPT 25 mg/kg alone 15 min before CHA 1 mg/kg (S15C), n=3-5): not sufficient
- prevention of the initial drop in blood pressure or heart rate (hypotension) immediately following CHA administration ([1]; 8-SPT alone (pretreatment), dose not stated): cannot prevent; also recorded: not sufficient
- increase of blood pressure ([1]; 8-SPT alone, after metabolic suppression is stabilized): sufficient
- CHA induced hypotension [2]: effectively blocked

SMILES: CN1C2CCC1CC(OC(=O)C(CO)c1ccccc1)C2 (centres unmarked) [Atropine, atropine]
- prevention of CHA induced hypotension ([1]; rat, in vivo): not sufficient; also recorded: does not prevent

SMILES: OC[C@H]1O[C@@H](n2cnc3c(NC4CCCCC4)ncnc32)[C@H](O)[C@@H]1O [CHA, N6-Cyclohexyladenosine]
- blood pressure effect of the agonist alone ([1]; 1 mg/kg at time point zero, n=4-5): hypotension

SMILES: CN(C)CCOC(c1ccccc1)c1ccccc1 [diphenhydramine]
- prevention of hypotension ([1]; diphenhydramine 4 mg/kg alone 30 min before CHA 1 mg/kg (D30C), n=3-5): not sufficient

SMILES: CC(C)NCC(O)COc1cccc2ccccc12 (centres unmarked) [propranolol]
- prevention of hypotension ([1]; propranolol 4 mg/kg alone 15 min before CHA 1 mg/kg (P15C), n=3-5): not sufficient
